Experimental data reported in patent publication US8269000B2, “Substituted pyrimidine and triazine compounds” (Gruenenthal GmbH, priority 2008, dated 2012).

Each compound was assayed against T1, rat B1R (Rattus norvegicus, UniProt P97583) (assay: FLIPR Ca2+ functional study on bradykinin receptor 1 (rB1R CHO K1 cells)). Settings: % inhibition rat B1R at 10 μM.
T1 construct: expressed in transfected cells; host or cells: CHO K1 cells
T1 sequence (P97583 1-337): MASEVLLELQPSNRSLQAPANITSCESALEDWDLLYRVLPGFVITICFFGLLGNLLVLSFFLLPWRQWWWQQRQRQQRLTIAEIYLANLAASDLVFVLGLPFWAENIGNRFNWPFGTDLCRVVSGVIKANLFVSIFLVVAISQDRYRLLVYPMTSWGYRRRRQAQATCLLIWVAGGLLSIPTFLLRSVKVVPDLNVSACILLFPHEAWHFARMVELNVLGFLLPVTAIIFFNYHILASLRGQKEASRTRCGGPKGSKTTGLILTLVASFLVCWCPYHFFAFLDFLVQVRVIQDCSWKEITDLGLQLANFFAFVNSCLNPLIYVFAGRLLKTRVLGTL
Assay type: cell-based
Outline: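 CHO K1 cells stably expressing human or rat B1R were loaded with Fluo-4 and read on FLIPR (ex 488/em 540 nm, peak counts). Test compound (10 μM, or a concentration range for IC50) was added first for % activation versus control agonist; after 10-20 min, EC80 Lys-Des-Arg9-bradykinin (human) or Des-Arg9-bradykinin (rat) was added, giving % inhibition of maximum. n=2-3, N≥2.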

Compared with `COc1cc(C)c(S(=O)(=O)N2c3ccccc3C[C@H]2COc2ccnc(N3CCN(CC4CCN(C)CC4)CC3)n2)c(C)c1` [H_CC-020, (2S)-1-(4-methoxy-2,6-dimethylphenyl)sulfonyl-2-[[2-[4-[(1-methyl-4-pipendinyl)methyl]-1-piperazinyl]-4-pyrimidinyl]oxymethyl]indoline], `COc1cc(C)c(S(=O)(=O)N2CCCCC2COc2ccnc(N3CCN(c4ncccn4)CC3)n2)c(C)c1` (centres unmarked) [H_CC-004, 4-[[1-(4-methoxy-2,6-dimethylphenyl)sulfonyl-2-pipendinyl]methoxy]-2-[4-(2-pyrimidinyl)-1-piperazinyl]pyrimidine] is lower in “% inh. (rat B1R) 10 μM” value: 93% for the first, 57% for the second.

Same assay, conditions: CHO-K1, % inhibition rat B1R at 10 μM, read-out: % inh. (rat B1R) 10 μM

First: COc1cc(C)c(S(=O)(=O)N2CCC[C@@H]2COc2ccnc(N3CCCC3Cc3ccccn3)n2)c(C)c1 (stereo partly drawn) [H_CC-084, 4-[[(2R)-1-[(4-methoxy-2,6-dimethyl-phenyl)sulfonyl]-pyrrolidin-2-yl]-methoxy]-2-[2-(pyridin-2-yl-methyl)-pyrrolidin-1-yl]-pyrimidine]
Second: COc1cc(C)c(S(=O)(=O)N2CCCCC2COc2ccnc(N3CCC(O)(c4cccnc4)CC3)n2)c(C)c1 (centres unmarked) [H_CC-007, 1-[4-[[1-(4-methoxy-2,6-dimethylphenyl)sulfonyl-2-piperidinyl]methoxy]-2-pyrimidinyl]-4-(3-pyridyl)-4-piperidinol]
The inhibition at 10 µM of the first is lower: 55% for the first, 71% for the second.

First: COc1cc(C)c(S(=O)(=O)N2CCCCC2COc2ccnc(N3CCN(C4CCN(C)CC4)CC3)n2)c(C)c1 (centres unmarked) [H_CC-001, 4-[[1-(4-methoxy-2,6-dimethylphenyl)sulfonyl-2-piperidinyl]methoxy]-2-[4-(1-methyl-4-piperidinyl)-1-piperazinyl]pyrimidine]
Second: COc1cc(C)c(S(=O)(=O)N2CCC[C@H]2COc2ccnc(N3CCC(CCN4CCCC4)CC3)n2)c(C)c1 [H_CC-009, 4-[[(2S)-1-(4-methoxy-2,6-dimethylphenyl)sulfonyl-2-pyrrolidinyl]methoxy]-2-[4-(2-1-pyrrolidinylethyl)-1-piperidinyl]pyrimidine]
The inhibition at 10 µM of the first is lower: 65% for the first, 85% for the second.

Compared with `COc1cc(C)c(S(=O)(=O)N2CCCCC2COc2nccc(N3CCC(Oc4cnccn4)CC3)n2)c(C)c1` (centres unmarked) [G_CC-079, 2-[[1-[(4-methoxy-2,6-dimethyl-phenyl)sulfonyl]-piperidin-2-yl]-methoxy]-4-(4-pyrazin-2-yloxy-piperidin-1-yl)-pyrimidine], `COc1cc(C)c(S(=O)(=O)N2CCCCC2COc2nccc(N3CCN(C)CC3)n2)c(C)c1` (centres unmarked) [G_CC-009, 2-[[1-(4-methoxy-2,6-dimethylphenyl)sulfonyl-2-piperidinyl]methoxy]-4-(4-methyl-1-piperazinyl)pyrimidine] is lower in inhibition at 10 µM: 98% for the first, 63% for the second.

First: COc1cc(C)c(S(=O)(=O)N2CC(Oc3ccnc(N4CCC(O)(c5cccnc5)CC4)n3)C2)c(C)c1 [H_CC-076, 1-[4-[1-[(4-methoxy-2,6-dimethyl-phenyl)sulfonyl]-azetidin-3-yl]oxy-pyrimidin-2-yl]-4-pyridin-3-yl-piperidin-4-ol]
Second: COc1cc(C)c(S(=O)(=O)N2CCC[C@H]2COc2nccc(N3CCC(O)(c4cccnc4)CC3)n2)c(C)c1 [G_CC-020, 1-[2-[[(2S)-1-(4-methoxy-2,6-dimethylphenyl)sulfonyl-2-pyrrolidinyl]methoxy]-4-pyrimidinyl]-4-(3-pyridyl)-4-piperidinol]
The inhibition at 10 µM of the first is lower: 69% for the first, 102% for the second.

Compared with `CCCCC1(N(C)C)CCN(CCN(C)c2nccc(OC3CCCN(S(=O)(=O)c4c(C)cc(OC)cc4C)C3)n2)CC1` (centres unmarked) [H_CC-053, 2-(4-butyl-4-dimethylamino-piperidin-1-yl)-ethyl-[4-[1-[(4-methoxy-2,6-dimethyl-phenyl)sulfonyl]-piperidin-3-yl]oxy-pyrimidin-2-yl]-methyl-amine], `CCCCC1(N(C)C)CCN(CCN(C)c2nccc(OCC3CCCCN3S(=O)(=O)c3c(C)cc(OC)cc3C)n2)CC1` (centres unmarked) [H_CC-045, 2-(4-butyl-4-dimethylamino-piperidin-1-yl)-ethyl-[4-[[1-[(4-methoxy-2,6-dimethyl-phenyl)sulfonyl]-piperidin-2-yl]-methoxy]-pyrimidin-2-yl]-methyl-amine] is higher in inhibition at 10 µM: 95% for the first, 96% for the second.

Compared with `COc1cc(C)c(S(=O)(=O)N(C)CCOc2nccc(N3CCC4(CC3)CCN(c3ccc(F)cc3)C4=O)n2)c(C)c1` [G_CC-042, N-[2-[[4-[3-(4-fluorophenyl)-4-oxo-3,8-diazaspiro[4.5]decan-8-yl]-2-pyrimidinyl]oxy]ethyl]-4-methoxy-N,2,6-trimethylbenzenesulfonamide], `COc1cc(C)c(S(=O)(=O)N(C)CCOc2nccc(N3CCC4(CCN(Cc5ccc(F)cc5)C4=O)CC3)n2)c(C)c1` [G_CC-045, N-[2-[[4-[3-[(4-fluorophenyl)methyl]-4-oxo-3,8-diazaspiro[4.5]decan-8-yl]-2-pyrimidinyl]oxy]ethyl]-4-methoxy-N,2,6-trimethylbenzenesulfonamide] is higher in inhibition at 10 µM: 87% for the first, 96% for the second.

Compared with `COc1cc(C)c(S(=O)(=O)N2CCC[C@H]2COc2nccc(N3CCC4(CC3)OCc3ccccc34)n2)c(C)c1` [G_CC-033, 1′-[2-[[(2S)-1-(4-methoxy-2,6-dimethylphenyl)sulfonyl-2-pyrrolidinyl]methoxy]-4-pyrimidinyl]spiro[1H-isobenzofuran-3,4′-piperidine]], `COc1cc(C)c(S(=O)(=O)N2CCC[C@H]2COc2nccc(N3CCC4(CCN(Cc5ccccc5)C4=O)CC3)n2)c(C)c1` [G_CC-053, 3-benzyl-8-[2-[[(2S)-1-(4-methoxy-2,6-dimethylphenyl)sulfonyl-2-pyrrolidinyl)methoxy]-4-pyrimidinyl]-3,8-diazaspiro[4.5]decan-4-one] is higher in inhibition at 10 µM: 68% for the first, 96% for the second.

Compared with `COc1cc(C)c(S(=O)(=O)N2CCC[C@H]2COc2nccc(N3CCC4(CC3)C(=O)N(C)CC4c3ccc(F)cc3)n2)c(C)c1` (stereo partly drawn) [G_CC-050, 1-(4-fluorophenyl)-8-[2-[[(2S)-1-(4-methoxy-2,6-dimethylphenyl)sulfonyl-2-pyrrolidinyl]methoxy]-4-pyrimidinyl]-3-methyl-3,8-diazaspiro[4.5]decan-4-one], `COc1cc(C)c(S(=O)(=O)N2CCCCC2COc2nccc(N3CCC(C)(N4CCOCC4)CC3)n2)c(C)c1` (centres unmarked) [G_CC-131, 4-[1-[2-[[1-[(4-methoxy-2,6-dimethyl-phenyl)sulfonyl]-piperidin-2-yl]-methoxy]-pyrimidin-4-yl]-4-methyl-piperidin-4-yl]-morpholine] is higher in inhibition at 10 µM: 73% for the first, 88% for the second.

Compared with `COc1cc(C)c(S(=O)(=O)N2CCCCC2COc2ccnc(N(C)CCN3CCC(c4ccccc4)(N(C)C)CC3)n2)c(C)c1` (centres unmarked) [H_CC-044, 2-(4-dimethylamino-4-phenyl-piperidin-1-yl)-ethyl-[4-[[1-[(4-methoxy-2,6-dimethyl-phenyl)sulfonyl]-piperidin-2-yl]-methoxy]-pyrimidin-2-yl]-methyl-amine], `COc1cc(C)c(S(=O)(=O)N2c3ccccc3C[C@H]2COc2ccnc(N(C)CCN3CCC(c4ccccc4)(N(C)C)CC3)n2)c(C)c1` [H_CC-057, 2-(4-dimethylamino-4-phenyl-piperidin-1-yl)-ethyl-[4-[[(2S)-1-[(4-methoxy-2,6-dimethyl-phenyl)sulfonyl]-2,3-dihydro-1H-indol-2-yl]-methoxy]-pyrimidin-2-yl]-methyl-amine] is lower in inhibition at 10 µM: 102% for the first, 98% for the second.

Compared with `COc1cc(C)c(S(=O)(=O)N2c3ccccc3C[C@H]2COc2ccnc(N3CCC(CCN4CCCCC4)CC3)n2)c(C)c1` [H_CC-028, (2S)-1-(4-methoxy-2,6-dimethylphenyl)sulfonyl-2-[[2-[4-[2-(1-piperidyl)ethyl]-1-piperidinyl]-4-pyrimidinyl]oxymethyl]indoline], `COc1cc(C)c(S(=O)(=O)N2CCCCC2COc2ccnc(N3CCC(OCCN4CCCC4)(c4cccnc4)CC3)n2)c(C)c1` (centres unmarked) [H_CC-035, 4-[[1-(4-methoxy-2,6-dimethylphenyl)sulfonyl-2-piperidinyl]methoxy]-2-[4-(3-pyridyl)-4-(2-1-pyrrolidinylethoxy)-1-piperidinyl]pyrimidine] is higher in inhibition at 10 µM: 83% for the first, 86% for the second.

Compared with `CCCCC1(N(C)C)CCN(c2nccc(OCC3CCCCN3S(=O)(=O)c3c(C)cc(OC)cc3C)n2)CC1` (centres unmarked) [H_CC-062, [4-butyl-1-[4-[[1-[(4-methoxy-2,6-dimethyl-phenyl)sulfonyl]-piperidin-2-yl]-methoxy]-pyrimidin-2-yl]-piperidin-4-yl]-dimethyl-amine], `CCCCC1(N(C)C)CCN(CCN(C)c2nccc(OC[C@@H]3Cc4ccccc4N3S(=O)(=O)c3c(C)cc(OC)cc3C)n2)CC1` [H_CC-058, 2-(4-butyl-4-dimethylamino-piperidin-1-yl)-ethyl-[4-[[(2S)-1-[(4-methoxy-2,6-dimethyl-phenyl)sulfonyl]-2,3-dihydro-1H-indol-2-yl]-methoxy]-pyrimidin-2-yl]-methyl-amine] is higher in inhibition at 10 µM: 73% for the first, 97% for the second.

Compared with `COc1cc(C)c(S(=O)(=O)N2CCC[C@H]2COc2nccc(N3CCN(c4ncccn4)CC3)n2)c(C)c1` [G_CC-018, 2-[[(2S)-1-(4-methoxy-2,6-dimethylphenyl)sulfonyl-2-pyrrolidinyl]methoxy]-4-[4-(2-pyrimidinyl)-1-piperazinyl]pyrimidine], `COc1cc(C)c(S(=O)(=O)N(C)CCOc2nccc(N3CCN(c4ccc(F)cc4)CC3)n2)c(C)c1` [G_CC-005, N-[2-[[4-[4-(4-fluorophenyl)-1-piperazinyl]-2-pyrimidinyl]oxy]ethyl]-4-methoxy-N,2,6-trimethylbenzenesulfonamide] is lower in inhibition at 10 µM: 97% for the first, 81% for the second.
